biological target: T1, Tyrosine-protein phosphatase non-receptor type 1 (Homo sapiens, UniProt P18031); assay: Inhibition of human recombinant PTP1B assessed as p-nitorphenol production after 30 mins
T1 sequence (P18031 whole entry): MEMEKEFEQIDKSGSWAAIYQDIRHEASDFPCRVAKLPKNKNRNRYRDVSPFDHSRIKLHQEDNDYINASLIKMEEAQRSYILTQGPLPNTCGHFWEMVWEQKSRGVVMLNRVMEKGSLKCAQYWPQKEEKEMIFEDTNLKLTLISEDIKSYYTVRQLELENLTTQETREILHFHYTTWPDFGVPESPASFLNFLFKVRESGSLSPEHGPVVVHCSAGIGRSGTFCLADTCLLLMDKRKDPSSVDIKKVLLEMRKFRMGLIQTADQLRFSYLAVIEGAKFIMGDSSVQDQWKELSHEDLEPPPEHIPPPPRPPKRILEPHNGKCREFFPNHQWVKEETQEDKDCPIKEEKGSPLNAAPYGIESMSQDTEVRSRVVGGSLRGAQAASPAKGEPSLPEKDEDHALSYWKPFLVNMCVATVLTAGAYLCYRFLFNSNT

First: CC(C)=CCc1cc(-c2coc3cc(O)cc(O)c3c2=O)cc(O)c1O [GLYCYRRHISOFLAVONE]
Second: COc1cc(O)cc2occ(-c3cc(O)c(O)c(CC=C(C)C)c3)c(=O)c12 [GLISOFLAVONE]
The IC50 of the first is 2.1-fold higher: 58.7 µM for the first, 27.9 µM for the second.

Going from `COc1c(CC=C(C)C)c(O)cc(O)c1-c1oc2cc(O)ccc2c1C` [GLYCYBENZOFURAN] to `COc1c(CC=C(C)C)c(O)cc2oc(-c3ccc(O)cc3O)cc12` [LICOCOUMARONE], the IC50 rises from 25.5 µM to 71.2 µM (2.8-fold).

First: CCCCCCCCCCCCCCCC(=O)C1=C(O)[C@@H](CO)OC1=O
Second: COc1c(CC=C(C)C)c(O)cc2oc(=O)c(-c3ccc(O)cc3O)cc12 [GLYCYCOUMARIN]
The IC50 of the first is 42-fold lower: 4.4 µM for the first, 184 µM for the second. The first is the more potent here.

`CC(C)=CCc1cc2c(=O)cc(-c3ccc(O)cc3)oc2cc1O` [LICOFLAVANONE A] gave an IC50 of 54.5 µM.

Reference: ChEMBL document CHEMBL1221387, “Prenylflavonoids from Glycyrrhiza uralensis and their protein tyrosine phosphatase-1B inhibitory activities” (Bioorg Med Chem Lett, 2010)
